Laboratory results reported in publication PMC10685318, “Trans-cyclosulfamidate mannose-configured cyclitol allows isoform-dependent inhibition of GH47 α-D-mannosidases through a bump–hole strategy” (Chemical Science, 2023).

Columns and labels:
CkGH47 WT = CkGH47 WT (Caulobacter sp. K31, UniProt B0SWV2); assay: Inhibition of CkGH47 WT monitored by enzymatic conversion of α-1,2-mannobiose to mannose; assay type: biochemical, Caulobacter K31 strain; conditions: for inhibition of the wild-type GH47 model enzyme: even at high inhibitor concentrations
Sequence of CkGH47 WT (B0SWV2 entry or part of it): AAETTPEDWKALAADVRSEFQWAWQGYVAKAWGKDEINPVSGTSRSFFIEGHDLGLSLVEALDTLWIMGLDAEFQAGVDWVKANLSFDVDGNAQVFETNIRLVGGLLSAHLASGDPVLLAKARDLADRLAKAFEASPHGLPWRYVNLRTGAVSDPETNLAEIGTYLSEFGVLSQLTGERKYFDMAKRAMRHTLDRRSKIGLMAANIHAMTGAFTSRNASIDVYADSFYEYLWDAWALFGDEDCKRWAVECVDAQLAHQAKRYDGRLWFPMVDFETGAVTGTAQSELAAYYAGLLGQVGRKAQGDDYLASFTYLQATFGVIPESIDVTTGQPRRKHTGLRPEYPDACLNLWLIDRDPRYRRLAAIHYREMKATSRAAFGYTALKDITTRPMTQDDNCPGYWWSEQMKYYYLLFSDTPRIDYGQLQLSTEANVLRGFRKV
Experimental: Trans-Cyclosulfamidate Cyclitols Males et al.
Figure S4. Inhibition of CkGH47 by 6 monitored by the enzymatic conversion of mannobiose to mannose. 3 concentrations of the […]
and the reaction was incubated for 1 hour at 22 °C. The enzyme was heat denatured (90 °C for 5 minutes). Using the mannose detection kit, NADPH production at 340 nm was measured and converted to mannose concentration using a standard curve of […]
Figure S5. Docking of 6, in pink, into the crystal structure of Caulobacter GH47 (PDB ID: 4AYO), in gold, showing the distance between the oxygen of 6 and L310. Left: 6 was docked into the CkGH47 enzyme active site by least squares fit superposition in coot against the CkGH47 and kifunensine complex (PDB ID 5NE5). Right: Position of CkGH47 WT crystal structures of the inhibitors 6 (pink) and kifunensine (green); native is shown in gold (PDB ID: 4AYO) and CkGH47 in complex with kifunensine is shown in orange (PDB ID: 5NE5); there are 2 alternate conformations of leucine each with 50% occupancy in the crystal structure. […]
2.1 Biochemical and biological methods
To obtain Michaelis-Menten kinetics
Lastly, to achieve an inhibition constant, the
The gradient of the graph, V0/Vi
After taking each time point, the sample was heat denatured at 95 °C for 5 minutes. The reactions were conducted in triplicate and averaged. […]
microplate spectrophotometer (BioTek). The mannose detection kit (Megazyme) was used to detect […]
dehydrogenase, was monitored at 340 nm. The absorbance after hexokinase was added to the mixture […]
2.1.2 Isothermal titration calorimetry
MicroCal ITC200 calorimeter at 25 °C over 20 injections. The experiment was duplicated to obtain a […]
the MicroCal PEAK-ITC analysis software.
2.2 Crystallographic data collection and refinement of CkGH47
3′ and the reverse primer was 5′-[…]-3′. Protein production and purification was followed as described previously.[3]
Reference data in the form of a
Refinement of the model was conducted […]
conformation was conducted using […]. Details of the data collection and refinement statistics […]

[1] = tested on: GH47 model enzyme from Caulobacter K31 strain; assay: Crystal soaks with WT GH47; assay type: binding

Structure (SMILES): O=S1(=O)N[C@@H]2[C@@H](O)[C@@H](O)[C@H](O)[C@@H](CO)[C@H]2O1 [compound 6, 1,6-trans-manno-cyclosulfamidate]
- α-1,2-mannobiose hydrolysed by the WT GH47 mannosidase to mannose (CkGH47 WT; after the addition of 1 mM 6): 82%
- inhibition of the wild-type GH47 model enzyme (CkGH47 WT): no significant inhibition
- inhibition of the wild-type GH47 model enzyme (CkGH47 WT; listed as 1,6-trans-cyclic sulfamidate): does not inhibit
- binding in crystal soaks [1]: no binding
